In PMC10610115, “Identification of Potential JNK3 Inhibitors: A Combined Approach Using Molecular Docking and Deep Learning-Based Virtual Screening” (Pharmaceuticals, 2023) one finds IC50 data, which are given here for one molecule.

The structures appear in SMILES notation.

The assay addresses T1, JNK3 (c-Jun N-terminal kinase 3) (Homo sapiens, UniProt P53779).
T1 construct: gene MAPK10
The experiment in a line: HTRF-type kinase assay (Cryptate/XL665), dose response. The class given is biochemical. (In general: Time-resolved FRET reads energy transfer from a long-lived donor to a nearby acceptor.)

T1 sequence (P53779 whole entry): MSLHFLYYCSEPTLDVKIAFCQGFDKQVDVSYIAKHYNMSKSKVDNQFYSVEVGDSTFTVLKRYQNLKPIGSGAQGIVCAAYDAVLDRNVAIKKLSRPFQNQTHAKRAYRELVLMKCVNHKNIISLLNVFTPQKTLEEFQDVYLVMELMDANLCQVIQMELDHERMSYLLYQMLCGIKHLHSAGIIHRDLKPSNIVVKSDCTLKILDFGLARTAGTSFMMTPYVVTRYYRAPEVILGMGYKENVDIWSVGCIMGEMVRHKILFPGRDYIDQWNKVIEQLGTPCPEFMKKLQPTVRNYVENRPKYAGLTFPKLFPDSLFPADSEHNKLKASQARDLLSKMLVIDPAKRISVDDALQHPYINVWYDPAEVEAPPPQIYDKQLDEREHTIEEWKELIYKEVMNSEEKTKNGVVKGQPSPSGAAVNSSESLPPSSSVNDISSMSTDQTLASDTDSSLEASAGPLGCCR

By IC50 is commonly meant the concentration that gives 50% inhibition. Lower therefore signals greater potency in that assay. `CCc1nc(-c2cccc(C)c2)c(-c2ccnc(NC(=O)c3ccccc3)c2)s1` [compound 6, N-(4-(2-ethyl-4-(m-tolyl)thiazol-5-yl)pyridin-2-yl)benzamide]: it took 130 nM to reach half-maximal inhibition (IC50).
